Test results: patent US8188148B2, “Substituted 1,3-diphenylpropane derivatives, preparations and uses thereof” (Genfit, priority 2006, dated 2012)

Columns and labels:
[1] = system: PPARs target genes (PDK4, ApoCIII); assay: Hepatic gene expression by quantitative RT-PCR in C57BI6 mouse; format: in vivo; conditions: C57BI6 mouse, 3, 10, and 30 mpk, 14 days, normalized to 36B4
Method: The effectiveness of the compounds according to the invention is also evaluated by measuring, in hepatic tissue, the expression of the genes involved in lipid metabolism. Each level of gene expression is normalized regarding the expression level of the reference gene 36B4. The induction factor is then calculated. The higher the induction factor is, the more the compound promotes hepatic gene expression. […]
Total RNA was extracted from liver fragments by using a NucleoSpin® 96 RNA kit (Macherey Nagel, Hoerdt, France) according to the manufacturer's instructions. 1 μg of total RNA (quantified by spectrophotometry) was then reverse-transcripted into cDNA by means of a 1 hour reaction at 37° C. in a total volume of 20 μl containing a 1× buffer (Sigma), 1.5 mM of DTT, 0.18 mM of dNTPs (Promega), 200 ng of pdN6 (Amersham), 30 U of RNase inhibitor (Sigma), and 1 μl of MMLV-RT (Sigma).
The PCR quantitative experiments were carried out using the MyiQ Single-Color Real-Time PCR Detection System (Biorad, Marnes-la-Coquette, France) and were performed using the iQ SYBR Green Supermix kit according to the provider's recommendations, in 96-well plates in 5 μl of a diluted reverse transcription solution and at a hybridization temperature of 55° C. […]
The amount of fluorescence emitted is directly proportional to the amount of cDNA present at the beginning of the reaction and amplified during the PCR. […]

C57BI6 mouse = assay: In vivo evaluation on C57BI6 mouse: body weight and plasma lipids; conditions: C57BI6 mouse, 3, 10, and 30 mpk per os, 14 days, vs control
Method: The effect of the compounds according to the invention is evaluated in vivo on the C57BI6 mouse by measuring the body weight evolution, the plasma HDL cholesterol and triglyceride levels, after 14 days of a per os treatment with the compounds according to the invention.
Female C57BI6 mice were kept on a 12 hour/12 hour light/dark cycle at a constant temperature of 20±3° C. After a one week acclimatization period, the mice were weighed and divided into groups of 6 animals selected such as the distribution of body weight and of plasma lipid rate, determined before the experiment, was uniform. The tested compounds were suspended in carboxymethylcellulose (Sigma C4888) and administered to the animals by gastric gavage, once a day for 14 days at the chosen doses. The animals had free access to food and water (standard diet). Taking of food and weight gain are recorded throughout the experiment. At the end of the experiment, after a 4 hour fast, the animals were anesthetized and a blood sample was taken on anticoagulant (EDTA). Then the mice were weighed and euthanized. The plasma was separated by centrifugation at 3000 rotations/minute for 20 minutes. The samples were kept at +4° C. Hepatic tissue samples were removed, frozen in liquid nitrogen, and then kept at −80° C. for later analyses.
Low-density lipoproteins (VLDL and LDL) are precipitated by Phosphotungstate. The precipitate is eliminated by centrifugation. HDL-cholesterol present in the supernatant is measured by enzymatic assays (bioMérieux-Lyon-France) in accordance with the provider's recommendations.
Plasma triglyceride concentrations were measured by enzymatic assays (bioMérieux-Lyon-France) according to the provider's recommendations.

Q: What does the source list for `Cc1cc(CCC(=O)c2ccc(OC(F)(F)F)cc2)cc(C)c1OC(C)(C)C(=O)O` [Compound 1, 2-[2,6-dimethyl-4-[3-[4-(trifluoromethyloxy)phenyl]-3-oxo-propyl]phenoxy]-2-methyl-propanoic acid]?
A: hepatic expression of the gene coding for ApoCIII [1]: reduction; hepatic expression of the gene coding for PDK4 [1]: significant increase; body weight gain (C57BI6 mouse): weight loss; plasma HDL-cholesterol (C57BI6 mouse): very significantly increased; plasma triglycerides (C57BI6 mouse): very significantly diminished
